Measured values taken from publication PMC5449569, “Basal late sodium current is a significant contributor to the duration of action potential of guinea pig ventricular myocytes” (Physiological Reports, 2017).

Molecular target: T1, NaV1.5 channel (native basal late sodium current, INaL) (Cavia porcellus, UniProt H0V4Z8)
T1 construct: gene SCN5A; native channel in isolated guinea pig ventricular myocytes
Assay: whole-cell patch clamp of late Na+ current, single concentration ([…])
Type: cell-based
Conditions: read-out: % inhibition at 2 mmol/L

T1 sequence (H0V4Z8 1-2015): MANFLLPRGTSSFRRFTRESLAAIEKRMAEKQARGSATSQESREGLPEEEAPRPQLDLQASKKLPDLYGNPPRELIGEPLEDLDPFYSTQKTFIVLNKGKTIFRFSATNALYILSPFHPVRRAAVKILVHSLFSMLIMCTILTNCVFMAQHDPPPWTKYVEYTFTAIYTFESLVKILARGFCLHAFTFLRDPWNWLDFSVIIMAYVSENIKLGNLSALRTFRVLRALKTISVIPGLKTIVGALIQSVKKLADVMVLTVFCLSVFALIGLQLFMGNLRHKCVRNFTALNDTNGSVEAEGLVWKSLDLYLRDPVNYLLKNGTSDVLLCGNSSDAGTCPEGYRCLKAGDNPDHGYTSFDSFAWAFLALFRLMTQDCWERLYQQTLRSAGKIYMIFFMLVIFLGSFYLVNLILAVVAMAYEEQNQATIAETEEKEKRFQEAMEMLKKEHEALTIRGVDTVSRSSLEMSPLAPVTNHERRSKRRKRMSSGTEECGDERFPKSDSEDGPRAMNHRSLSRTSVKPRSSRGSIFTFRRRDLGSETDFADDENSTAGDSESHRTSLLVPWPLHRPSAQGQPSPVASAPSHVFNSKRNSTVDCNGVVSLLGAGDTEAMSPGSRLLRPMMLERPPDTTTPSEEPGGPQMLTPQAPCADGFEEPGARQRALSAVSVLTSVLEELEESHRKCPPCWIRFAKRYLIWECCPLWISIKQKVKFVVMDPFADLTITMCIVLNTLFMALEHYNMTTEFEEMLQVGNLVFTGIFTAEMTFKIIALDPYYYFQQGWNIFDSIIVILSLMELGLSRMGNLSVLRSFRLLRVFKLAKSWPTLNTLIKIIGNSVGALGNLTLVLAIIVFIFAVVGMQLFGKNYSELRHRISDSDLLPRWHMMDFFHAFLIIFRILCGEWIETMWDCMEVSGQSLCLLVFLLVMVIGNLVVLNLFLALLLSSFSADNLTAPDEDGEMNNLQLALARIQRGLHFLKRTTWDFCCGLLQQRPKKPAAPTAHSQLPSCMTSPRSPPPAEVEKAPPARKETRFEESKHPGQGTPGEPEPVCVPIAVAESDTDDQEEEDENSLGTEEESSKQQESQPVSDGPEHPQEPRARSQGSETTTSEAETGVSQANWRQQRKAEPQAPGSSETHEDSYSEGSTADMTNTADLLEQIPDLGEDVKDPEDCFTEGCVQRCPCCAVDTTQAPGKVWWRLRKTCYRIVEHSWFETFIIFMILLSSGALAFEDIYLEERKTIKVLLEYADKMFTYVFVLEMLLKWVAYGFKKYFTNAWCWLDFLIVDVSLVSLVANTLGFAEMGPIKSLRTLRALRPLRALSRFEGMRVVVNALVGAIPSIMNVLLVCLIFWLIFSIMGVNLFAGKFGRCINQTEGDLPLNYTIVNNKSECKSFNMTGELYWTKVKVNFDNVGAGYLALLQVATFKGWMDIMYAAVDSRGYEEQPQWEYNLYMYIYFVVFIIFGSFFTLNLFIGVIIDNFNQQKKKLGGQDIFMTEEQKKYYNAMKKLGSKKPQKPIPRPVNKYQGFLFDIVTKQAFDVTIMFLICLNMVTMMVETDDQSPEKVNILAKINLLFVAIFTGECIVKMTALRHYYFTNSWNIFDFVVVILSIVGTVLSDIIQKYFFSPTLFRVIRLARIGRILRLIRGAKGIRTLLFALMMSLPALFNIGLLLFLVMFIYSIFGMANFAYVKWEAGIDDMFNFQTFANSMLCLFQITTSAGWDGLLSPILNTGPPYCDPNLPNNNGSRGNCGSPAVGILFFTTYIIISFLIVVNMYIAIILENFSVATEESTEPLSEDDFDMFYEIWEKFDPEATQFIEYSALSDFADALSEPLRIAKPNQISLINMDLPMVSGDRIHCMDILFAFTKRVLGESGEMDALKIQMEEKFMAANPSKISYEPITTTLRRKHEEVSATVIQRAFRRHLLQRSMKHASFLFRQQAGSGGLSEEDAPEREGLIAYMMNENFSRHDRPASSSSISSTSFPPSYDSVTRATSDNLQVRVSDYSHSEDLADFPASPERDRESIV

How did the inhibition at 2000 µM turn out when `CS(=O)(=O)SCCN` [MTSEA] was run?
Its inhibition at 2000 µM is 90 ± 5%.
